ChEMBL document CHEMBL6092150, “Exploration of isatin-based inhibitors of SARS-CoV-2 Nsp15 endoribonuclease” (Eur J Med Chem, 2024)
The source made the active and inactive calls. The calls are words filed in the database; no cut-off is given here.

Key:
[1] = Cytotoxicity against human A549 cells by MTS cell viability analysis; type: toxicity, cell-based
[2] = target: Replicase polyprotein 1ab (Severe acute respiratory syndrome coronavirus 2, UniProt P0DTD1); assay: (§1) Inhibition of SARS-CoV-2 recombinant GST-tagged nsp15 endonuclease activity using 5'-6-FAM-AArUAA-lowa Black FQ-3' as substrate assessed as cleavage of substrate measured every 2 min for 1 hrs by FRET-based Nsp15 EndoU assay
[3] = target: Replicase polyprotein 1ab (Severe acute respiratory syndrome coronavirus 2) (UniProt P0DTD1); assay: as §1
MRC5 = assay: Cytotoxicity against human MRC5 cells at 100 uM incubated for 72 hrs by MTT cell viability assay; type: toxicity, cell-based; conditions: mrc5, 72 h
[4] = target: Replicase polyprotein 1ab (Severe acute respiratory syndrome coronavirus 2) (UniProt P0DTD1); assay: Effect on SARS-CoV-2 recombinant Nsp15 oligomerization state at 0.1 to 1 mM by Commassie-Native gel electrophoresis; conditions: dose 0.1-1 mM
[5] = target: Replicase polyprotein 1ab (Severe acute respiratory syndrome coronavirus 2) (UniProt P0DTD1); assay: Inhibition of SARS-CoV-2 recombinant GST-tagged nsp15 endonuclease activity using 5'-6-FAM-AArUAA-lowa Black FQ-3' as substrate assessed as cleavage of substrate at 100 uM measured every 2 min for 1 hrs by FRET-based Nsp15 EndoU assay relative to control
Vero C1008 = assay: Cytotoxicity against african green monkey Vero E6 cells at 100 uM incubated for 72 hrs by MTT cell viability assay; type: toxicity, cell-based; conditions: chlorocebus sabaeus, vero c1008, 72 h

Structure (SMILES)	CC50 [1] [µM]	IC50 [2] [µM]	inhibition [3]	Activity (MRC5)	Activity [4]	inhibition [5] [%]	Activity (Vero C1008)
N#C[C@@]1(c2ccc3c(N)ncnn23)O[C@H](CO)[C@@H](O)[C@H]1O [GS-441524]	> 40	–	–	–	–	–	–
N#CC(C#N)=C1C(=O)Nc2c(Br)cc(Br)cc21	134	53.5	Dose-dependent-effect	Non-toxic	inactive	68.1	Non-toxic
N#CC(C#N)=C1C(=O)Nc2ccc(Br)cc21	–	82.9	Dose-dependent-effect	–	–	55.9	–
O=C1Nc2ccc(I)cc2C1=O	–	–	–	–	–	26.2	–
O=C1Nc2c(Br)cc(Br)cc2C1=O	–	–	–	–	–	58.4	–
O=C1Nc2ccc(F)cc2C1=O	–	–	–	–	–	13.6	–
O=C1Nc2ccc(Br)cc2C1=O	–	–	–	–	–	32.7	–
N#CC(C#N)=C1C(=O)Nc2ccc(F)cc21	–	236	Dose-dependent-effect	–	–	30.2	–
N#CC(C#N)=C1C(=O)Nc2ccc([N+](=O)[O-])cc21	189	43.5	Dose-dependent-effect	Non-toxic	inactive	61.5	Non-toxic
O=C1Nc2ccc([N+](=O)[O-])cc2C1=O [5-NITROISATIN]	–	–	–	Non-toxic	–	40.7	Non-toxic
N#CC(C#N)=C1C(=O)Nc2ccc(I)cc21	–	151	Dose-dependent-effect	–	–	32.6	–
